Structures can show the parent of a compound that is named as a salt. Where two headings read alike, the source gives them in different places.
Tested on: murine neural precursor cells (neurosphere cultures)
Assay: HTS of LOPAC library against secondary neurosphere cultures, MTT proliferation assay at 3 μM, day 7 (z score, P value)
Format: cell-based, mouse
[1] = LOPAC library screen, 3 μM, MTT, secondary neurosphere cultures, day 7
[2] = primary LOPAC screen, 3 μM, MTT, neurosphere proliferation
[3] = LOPAC screen, neurosphere MTT proliferation, 3 μM, day 7
[4] = yes/no: significantly inhibited neurosphere proliferation (P<0.01) in primary screen
[5] = LOPAC primary screen, neurosphere MTT proliferation, 3 μM, day 7
[6] = yes = significantly inhibited neurosphere proliferation (P<0.01) in the primary screen
[7] = yes/no: significantly inhibited neurosphere proliferation (P<0.01) in the primary screen
[8] = LOPAC library screen at 3 μM, secondary neurosphere cultures, MTT
[9] = yes/no: significantly inhibited neurosphere proliferation in primary screen
[10] = LOPAC library screen, 3 μM, MTT, neurosphere cultures
[11] = yes/no: significantly inhibited neurosphere proliferation in the primary screen
[12] = LOPAC library screen at 3 μM, MTT, secondary neurosphere cultures, screened in singlets

With `Cn1c(=O)c2[nH]cnc2n(C)c1=O.Cn1c(=O)c2[nH]cnc2n(C)c1=O.NCCN` [Aminophylline ethylenediamine] the Activity was “no”, the “Z Score” value [1] was −1.537 and the Z score [2] was −1.537.
`Cc1nc2sccn2c(=O)c1CCN1CCC(=C(c2ccccc2)c2ccc(F)cc2)CC1` [Diacylglycerol kinase inhibitor I] was tested, and the “Z Score” value was −1.782, the Z score [3] was −1.782 and the Activity [4] was “no”.
For `CCCn1c(=O)c2[nH]c(-c3ccc(OCC(=O)Nc4ccc(C#N)cc4)cc3)nc2n(CCC)c1=O` [MRS 1754], the “Z Score” value was 0.9268, the Z score [5] was 0.927 and the Activity [6] was “no”.
In the case of `Cc1nc(-c2ccc(-c3ccc(C(=O)N4CCc5cc6c(cc54)C4(CCN(C)CC4)CO6)cc3)c(C)c2)no1.Cl` [SB 224289 hydrochloride], the “Z Score” value [1] is reported as −4.786, the Z score [5] is reported as −4.786 and the Activity [7] is reported as “yes”.
For `Cl.OC1CCCCC1N1CCC(c2ccccc2)CC1` (centres unmarked) [(B1)-Vesamicol hydrochloride], the “Z Score” value was −1.967.
For `CNC[C@H](O)c1cccc(O)c1` [Phenylephrine hydrochloride], the Activity was “no”, the “Z Score” value [1] was −1.257 and the Z score [5] was −1.257.
For `C[C@]12C=CC(=O)C=C1CC[C@@H]1C2=CC[C@]2(C)[C@@H](C(=O)CN3CCN(c4cc(N5CCCC5)nc(N5CCCC5)n4)CC3)CC[C@@H]12.O=C(O)/C=C\C(=O)O` [U-74389G maleate], the “Z Score” value [1] was −8.942, the Z score [5] was −8.942 and the Activity [7] was “yes”.
In the case of `NC(N)=NCCCCN=C(N)N` [Arcaine sulfate], the “Z Score” value [8] is reported as −0.3299, the Z score [5] is reported as −0.330 and the Activity [9] is reported as “no”.
In the case of `Cc1ccc(S(=O)(=O)N[C@@H](CCCCN)C(=O)CCl)cc1.Cl`, the Activity is reported as “no”, the “Z Score” value is reported as 0.004812 and the Z score [5] is reported as 0.005.
In the case of `CC(=O)S[C@@H]1CC2=CC(=O)CC[C@]2(C)[C@H]2CC[C@@]3(C)[C@@H](CC[C@@]34CCC(=O)O4)[C@H]12` [Spironolactone], the Activity is reported as “no”, the “Z Score” value [8] is reported as −0.5258 and the Z score [5] is reported as −0.526.
`C[C@]12CC[C@@H]3c4ccc(O)cc4CC[C@H]3[C@@H]1CCC2=O` [Estrone] was tested, and the “Z Score” value [10] was 0.04081 and the Z score [5] was 0.041.
With `CC(=O)O.NC(=NCCC[C@H](N)C(=O)O)NO` [NG-Hydroxy-L-arginine acetate] the “Z Score” value [1] was −10.96, the Z score [5] was −10.958 and the Activity [7] was “yes”.
Ceramide was tested, and the “Z Score” value was −0.8267, the Z score [2] was −0.827 and the Activity [11] was “no”.
In the case of `S=C(NC1CCCCC1)N1CCC(c2cnc[nH]2)CC1` [Thioperamide maleate], the “Z Score” value [8] is reported as −0.1537, the Z score [2] is reported as −0.154 and the Activity [11] is reported as “no”.
`NC(=S)c1ccc[n+]([C@@H]2O[C@@H](COP(=O)([O-])OP(=O)(O)OC[C@H]3O[C@@H](n4cnc5c(N)ncnc54)C(OP(=O)([O-])O)[C@H]3O)C(O)C2O)c1.[Na+]` (some centres unmarked) [Thio-NADP sodium] was tested, and the “Z Score” value was 0.3661, the Z score [2] was 0.366 and the Activity [11] was “no”.
In the case of `CCOC(=O)Nc1ccc(NCc2ccc(F)cc2)nc1N` [Flupirtine maleate], the “Z Score” value [8] is reported as −0.484, the Z score [5] is reported as −0.484 and the Activity [4] is reported as “no”.
`Nc1nccc2c1ncn2[C@@H]1O[C@H](CO)[C@@H](O)[C@H]1O` [3-deazaadenosine] was tested, and the “Z Score” value [12] was 1.77, the Z score [3] was 1.770 and the Activity [4] was “no”.
`CN1[C@@H]2CC[C@H]1C[C@@H](OC(=O)C(CO)c1ccccc1)C2` (some centres unmarked) [Atropine sulfate] was tested, and the Activity was “no”, the “Z Score” value was 1.244 and the Z score was 1.244.
In the case of `CCCN1CCO[C@@H]2c3cc(O)ccc3OC[C@H]21.Cl` [(B1)-PD 128,907 hydrochloride], the “Z Score” value is reported as 1.164.
With `Cl.OC1CCCCC1N1CCC(c2ccccc2)CC1` (racemic) [(±)-Vesamicol hydrochloride] the Z score [2] was −1.967 and the Activity [11] was “no”.
With `CC(=O)SCC[N+](C)(C)C.[Cl-]` [Acetyithiocholine chloride] the “Z Score” value was 0.004223.
For `NC(=O)CN1CC(O)CC1=O` (centres unmarked) [Oxiracetam], the “Z Score” value [8] was −0.6131, the Z score [5] was −0.613 and the Activity [9] was “no”.
`COc1cc2c(cc1OC)[C@@H](c1ccccc1)CN(C)CC2.O=C(O)/C=C\C(=O)O` [R(−)-SCH-12679 maleate] was tested, and the “Z Score” value was 1.6092, the Z score [2] was 1.609 and the Activity [11] was “no”.
`Cc1ccc(=O)n(-c2ccccc2)c1` [Pirfenidone] was tested, and the “Z Score” value [1] was −1.482, the Z score [5] was −1.482 and the Activity [9] was “no”.
In the case of `CC(C)(C)C1(O)CCN2CC3c4ccccc4CCc4cccc(c43)C2C1.Cl` (single isomer, unassigned; (+)) [(+)-Butaclamol hydrochloride], the “Z Score” value [1] is reported as −11.27, the Z score [5] is reported as −11.274 and the Activity [7] is reported as “yes”.
`NS(=O)(=O)c1cccc2c1c([N+](=O)[O-])cc1nc([O-])c([O-])nc12.[Na+].[Na+]` [NBQX disodium] was tested, and the “Z Score” value [1] was −1.675, the Z score [5] was −1.675 and the Activity [9] was “no”.
For `N[C@@H]1CONC1=O` [D-Cycloserine], the “Z Score” value [1] was −1.24, the Z score [3] was −1.240 and the Activity [4] was “no”.
In the case of `O=C(O)[C@H]1CCCN[C@H]1C(=O)O`, the “Z Score” value is reported as 0.1553.
With `CNc1cc(NS(=O)(=O)c2ccc(N)cc2)nc(NC)n1.Cl.Cl` [Ro 04-6790 dihydrochloride] the “Z Score” value was 0.3428, the Z score [5] was 0.343 and the Activity [9] was “no”.
With `Cl.Cl.NCCCCN` [Putrescine dihydrochloride] the Activity was “no”, the “Z Score” value was −0.7689 and the Z score was −0.769.
`COCC(=O)O[C@]1(CCN(C)CCCc2nc3ccccc3[nH]2)CCc2cc(F)ccc2[C@@H]1C(C)C` [Mibefradil dihydrochloride] was tested, and the “Z Score” value [10] was −0.02693, the Z score [5] was −0.027 and the Activity [6] was “no”.
For `CNC(=O)OCC[N+](C)(C)C.[Cl-]` [Methylcarbamylcholine chloride], the “Z Score” value was 1.913, the Z score [5] was 1.913 and the Activity [6] was “no”.
`CNCCC=C1c2ccccc2CCc2ccccc21` [Nortriptyline hydrochloride] was tested, and the “Z Score” value [8] was −1.095, the Z score [5] was −1.095 and the Activity [6] was “no”.
In the case of `CC(=O)OCC1=C(C(=O)O)N2C(=O)[C@@H](NC(=O)CSc3ccncc3)[C@H]2SC1` [Cephapirin sodium], the “Z Score” value [10] is reported as 0.6219, the Z score [5] is reported as 0.622 and the Activity [7] is reported as “no”.
With `CCn1c(=O)c2[nH]c(-c3ccccc3)nc2n(CC)c1=O` [1,3-Diethyl-8-phenylxanthine] the “Z Score” value (168 h, 3 µM) was 2.005, the Z score (168 h, 3 µM) was 2.005 and the Activity [11] was “no”.
With `CC(=O)C(C)=O` [2,3-Butanedione] the “Z Score” value was −1.642, the Z score [3] was −1.642 and the Activity [4] was “no”.
In the case of `Nc1ncnc2c1ncn2C1CCCO1` (centres unmarked) [SQ 22536], the “Z Score” value is reported as 0.5616, the Z score [2] is reported as 0.562 and the Activity [11] is reported as “no”.
With `C[C@H]1C[C@H]2[C@@H]3CCC4=CC(=O)C=C[C@]4(C)[C@@]3(Cl)[C@@H](O)C[C@]2(C)[C@@]1(O)C(=O)CO` [Beclomethasone] the “Z Score” value [10] was 0.267, the Z score [2] was 0.267 and the Activity [11] was “no”.
With `Cl.NCC(O)C1CCCCCCC1` (centres unmarked) the Z score [3] was −0.575 and the Activity [4] was “no”.
For `Cn1c(=O)c2[nH]c(-c3ccc(S(=O)(=O)O)cc3)nc2n(C)c1=O` [8-(p-Sulfophenyl)theophylline], the “Z Score” value (168 h, 3 µM) was 1.047, the Z score (168 h, 3 µM) was 1.047 and the Activity [11] was “no”.
For `c1ccc2cc(-c3ncc[nH]3)ccc2c1` [Benazoline oxalate], the “Z Score” value [8] was −0.3348, the Z score [3] was −0.335 and the Activity [4] was “no”.
For (−)-Scopolamine methyl nitrate, the Activity [9] was “no”.
`C[N+](C)(C)CCOC(=O)CBr.[Br-]` [Bromoacetylcholine bromide] was tested, and the “Z Score” value was −0.3547, the Z score [3] was −0.355 and the Activity [4] was “no”.
With `C=CC1=C(C)c2cc3[nH]c(cc4nc(cc5[nH]c(cc1n2)c(C)c5CCC(=O)O)C(CCC(=O)O)=C4C)c(C)c3C=C` [Protoporphyrin IX disodium] the “Z Score” value (168 h, 3 µM) was −3.441, the Z score (168 h, 3 µM) was −3.441 and the Activity [6] was “yes”.
With `CNCC[C@H](Oc1ccc(C(F)(F)F)cc1)c1ccccc1.Cl` [S-(+)-Fluoxetine hydrochloride] the “Z Score” value [8] was −0.8088, the Z score [5] was −0.809 and the Activity [4] was “no”.
In the case of `CSc1ccc2c(c1)C(N1CCN(C)CC1)Cc1ccccc1S2` (centres unmarked) [Methiothepin (38), Methiothepin, reference compound], the “Z Score” value (168 h, 3 µM) is reported as 1.868, the Z score (168 h, 3 µM) is reported as 1.868 and the Activity [7] is reported as “no”.
In the case of `NS(=O)(=O)c1cc(C(=O)O)c(NCc2ccco2)cc1Cl` [Furosemide], the Activity is reported as “no”, the “Z Score” value [12] is reported as 1.889 and the Z score [5] is reported as 1.889.
`Cl.c1ccc2nc(C3=NCCN3)ccc2c1` [BU224 hydrochloride] was tested, and the “Z Score” value was 0.4045, the Z score [3] was 0.404 and the Activity [4] was “no”.
For `Cc1c2ccncc2c(C)c2c1[nH]c1ccccc12` [Ellipticine], the “Z Score” value [1] was −8.321.
In the case of `Br.C[N+](C)(C)CCCCCNCC12CC3CC(CC(C3)C1)C2.[Br-]` [IEM-1460], the “Z Score” value is reported as 0.6848, the Z score [5] is reported as 0.685 and the Activity [4] is reported as “no”.
For `CC(C)NC[C@@H](O)COc1ccc(CC(N)=O)cc1` [R(+)-Atenolol], the “Z Score” value [12] was 3.764, the Z score [2] was 3.764 and the Activity [11] was “no”.
`C[C@]12CCC(=O)C=C1CC[C@@H]1[C@@H]2C(=O)C[C@@]2(C)[C@H]1CC[C@]2(O)C(=O)CO` [Cortisone] was tested, and the “Z Score” value [8] was −0.5807, the Z score [2] was −0.581 and the Activity [11] was “no”.
With `CC(=O)C(C)=NO` [2,3-Butanedione monoxime] the “Z Score” value (168 h, 3 µM) was −1.81, the Z score (168 h, 3 µM) was −1.810 and the Activity [11] was “no”.
With `CC(N)c1cccc(Cl)c1Cl.Cl` (racemic) [(±)-2,3-Dichloro-alpha-methylbenzylamine hydrochloride] the Z score [3] was −2.251 and the Activity [4] was “no”.
